Experiments:
Experiment in all cases: Test A post-emergence
Parameters in all cases: key: 0 = no effect, 10 = maximum effect; letter = response symbol
cocklebur = type: in vivo, Xanthium spp.
Procedure, shortened: (§1)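 Seeds and tubers were treated preemergence in a growth medium with compound in a nonphytotoxic solvent, against untreated controls; emerged plants such as two-leaf barnyardgrass and five-leaf cotton were sprayed postemergence, against solvent-sprayed controls. After sixteen days in a greenhouse, response was rated visually from 0 to 10.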

cassia = type: in vivo, Cassia tora
Procedure, shortened: as §1

nutsedge = type: in vivo, Cyperus rotundus
Procedure, shortened: as §1

crabgrass = type: in vivo, Digitaria spp.
Procedure, shortened: as §1

barnyardgrass = type: in vivo, Echinochloa crusgalli
Procedure, shortened: as §1

wild oats = type: in vivo, Avena fatua
Procedure, shortened: as §1

rice = type: in vivo
Procedure, shortened: as §1

sorghum = type: in vivo
Procedure, shortened: as §1

soybean = type: in vivo
Procedure, shortened: as §1

wheat = type: in vivo
Procedure, shortened: as §1

morningglory = type: in vivo, Ipomoea spp.
Procedure, shortened: as §1

corn = type: in vivo
Procedure, shortened: as §1

bush bean = type: in vivo, bush beans; details: 0.4 kg/ha

SMILES	response rating (morningglory; 0.4 kg/ha) [C]	response rating (cassia; 0.4 kg/ha)	response rating (nutsedge; 0.4 kg/ha)	response rating (crabgrass; 0.4 kg/ha)	response rating (wild oats; 0.4 kg/ha)	response rating (rice; 0.4 kg/ha)	response rating (sorghum; 0.4 kg/ha)	response rating (soybean; 0.4 kg/ha)	response rating (wheat; 0.4 kg/ha)	response rating (barnyardgrass; 0.4 kg/ha)	response rating (corn; 0.4 kg/ha)	further results
COC(=O)c1ccccc1S(=O)(=O)NC(=O)Nc1nnc(C)c(C)n1 [drawing 417]												response rating (cocklebur; 2 kg/ha): 9C; response rating (cassia; 2 kg/ha): 9C; response rating (nutsedge; 2 kg/ha): 9C; response rating (crabgrass; 2 kg/ha): 9C; response rating (barnyardgrass; 2 kg/ha): 9C; response rating (wild oats; 2 kg/ha): 9C; response rating (rice; 2 kg/ha): 9C; response rating (sorghum; 2 kg/ha): 9C; response rating (soybean; 2 kg/ha): 9C; response rating (wheat; 2 kg/ha): 10C
CCCCCCCCCCOC(=O)c1ccccc1S(=O)(=O)NC(=O)Nc1nc(OC)cc(OC)n1 [drawing 427]	1	5G	2G	2G	1C	8G	9G	1H	1C			
CCCCCCCCCCOC(=O)c1ccccc1S(=O)(=O)NC(=O)Nc1nc(OC)nc(OC)n1 [drawing 429]		5G	3G	3G	0	2G	7H	7G	0	1C	6H	
CCCCCCCCCCOC(=O)c1ccccc1S(=O)(=O)NC(=O)Nc1nc(C)nc(OC)n1 [drawing 430]			2G	0	0	6G		6H	0	2H	7H	
CCCCOC(=O)c1ccccc1S(=O)(=O)NC(=O)Nc1nc(C)cc(OC)n1 [drawing 440]	9			3G	8G					10C		response rating (morningglory; 2 kg/ha): 10C; response rating (cocklebur; 0.4 kg/ha): 9C; response rating (cocklebur; 2 kg/ha): 10C; response rating (cassia; 2 kg/ha): 9C; response rating (nutsedge; 2 kg/ha): 9C; response rating (barnyardgrass; 2 kg/ha): 10C; response rating (corn; 2 kg/ha): 9C; response rating (rice; 2 kg/ha): 8C; response rating (sorghum; 2 kg/ha): 9C; response rating (soybean; 2 kg/ha): 9C; response rating (wheat; 2 kg/ha): 8C
Cc1cc(C)nc(NC(=O)NS(=O)(=O)c2ccccc2C(=O)O)n1 [drawing 444]				2G								response rating (barnyardgrass; 10 kg/ha): 2G; response rating (rice; 10 kg/ha): 5G; response rating (sorghum; 10 kg/ha): 3G; response rating (soybean; 10 kg/ha): 1C
C=CCOC(=O)c1ccccc1S(=O)(=O)NC(=O)Nc1nc(C)nc(OC)n1 [drawing 451]	10	9C			9C	9C	9C	9C	9C	9C	9C	response rating (bush bean): 9C; response rating (cocklebur; 0.4 kg/ha): 10C
COC(=O)c1cc(Cl)c(Cl)cc1S(=O)(=O)NC(=O)Nc1nc(C)cc(OC)n1 [drawing 452]		2C	6G	2G	0	2C	5G		0	7H	2G	
COc1cc(C)nc(NC(=O)NS(=O)(=O)c2ccccc2C(=O)N(C)C)n1 [drawing 465]	10	9C			9C	9C	9C	9C	9C	10C	9C	
COCCCOc1cc(C)nc(NC(=O)NS(=O)(=O)c2ccccc2C(=O)OC)n1 [drawing 470]		9C	9C	9C		8C	9C	8C		9C	9C	response rating (bush bean): 9C
